# Reference: patent US20090215889A1, “Novel Use of Zinc Gluconate for Treating Hydradenitis Suppurativa” (LABCATAL, priority 2005, published 2009)
# “And” between values parts separate entries of the source, which are not always exact repeats. Identical values can stand only once.
# Legend:
# suppurative hidradenitis [1] = settings: oral; open study on 80 patients; cited from earlier work
# [2] = tolerance to oral zinc gluconate doses; assay type: in vivo, human; settings: for example 90 mg/day
# suppurative hidradenitis [3] = assay: clinical observation of oral zinc gluconate in 20 patients with suppurative hidradenitis; assay type: in vivo, human; design: key to Rep (response of the individual patient): CR: complete remission; PR: partial remission
# Experimental: The efficacy of zinc gluconate in the treatment of suppurative hidradenitis was verified by the clinical observation performed on 20 patients, 16 of whom were monitored for a period of up to 24 months.
# 20 patients, 14 women and 6 men, from 23 to 72 years old, whose history of the disease ranged from 6 to 13 years, were placed on 90 mg of zinc gluconate per day for a period of a few months to 3 years.
# In 34% of the cases, the location of the lesions was inguinal, axillary in 24% of the cases, and on the buttocks in 17% of the cases. The other affected regions in 5% to 7% of the cases were the chest, the pubis or the perineum.
# “Dose 1” is the dose administered at the start of the treatment. “Dose 2” is the maintenance dose. The medical monitoring was generally from 4 to 8 months, and in a few cases it was extended beyond 12 months.
# [4] = Vidal monograph, overdose section; cited from earlier work
# suppurative hidradenitis [5] = settings: cited from earlier work
# [6] = of 20 patients, 90 mg zinc gluconate per day, monitoring for several months
compound,measurement,setting,value
CC1=C(/C=C/C(C)=C/C=C/C(C)=C\C(=O)O)C(C)(C)CCC1 [isotretinoin],results of treatment,suppurative hidradenitis [1],very mediocre results
zinc gluconate,observed side effects,[2],only digestive
same,systemic toxicity,[2],no systemic toxicity to be feared
same,tolerance,[2]; i.e. 6 gel capsules containing a 15 mg dose,usually good
same,patients for whom the treatment proved to be ineffective,"suppurative hidradenitis [3]; of 20 patients, 90 mg zinc gluconate per day",one
same,patients showing a full remission of the disease,suppurative hidradenitis [3]; [6],9 patients
same,patients showing a full remission of the disease (percentage),suppurative hidradenitis [3]; [6],45%
same,patients showing a partial remission,suppurative hidradenitis [3]; [6],6 patients
same,patients showing a partial remission (percentage),suppurative hidradenitis [3]; [6],30%
same,efficacy in the treatment of suppurative hidradenitis,"suppurative hidradenitis [3]; oral, 60 to 120 mg per day attack treatment, 15 to 90 mg per day maintenance treatment",satisfactory efficacy
same,Rep (response of the individual patient),"suppurative hidradenitis [3]; patient (No. 1-20), oral, Dose 1 60-120 mg/day at start, Dose 2 maintenance, monitoring 3 to >12 months",PR (6×) and CR (9×) and ineff.
same,probability of an acute intoxication,[4],zero
CC(=O)O[C@]1(C(C)=O)CC[C@H]2[C@@H]3C=C(Cl)C4=CC(=O)[C@@H]5C[C@@H]5[C@]4(C)[C@H]3CC[C@@]21C [cyproterone acetate],efficacy,"suppurative hidradenitis [5]; 100 mg/day of cyproterone acetate, small number of patients",efficacy only at large doses
same,outcome on dose reduction,suppurative hidradenitis [5]; dose reduced to 50 mg,recurrence
